Columns and labels:
Assay in all cases: whole plant or invertebrate
Format in all cases: in vivo
[1] = tested on: green peach aphid (Myzus persicae Sulzer)
Procedure: (§1) The pest control protection afforded by the mixtures or compositions is not limited, however, to these species. The analysis of synergism or antagonism between the mixtures or compositions was determined using Colby's equation. The average % mortality data for the test compounds alone were inserted into the Colby's equation. If the observed average % mortality was higher than “p”, the expected % mortality, the mixture or composition had synergistic effects. If the observed average % mortality was equal to or lower than the expected mortality, the mixture or composition either had no synergistic effect or an antagonistic effect. In these tests, Compound 1 is the compound of Formula 1.
(§2) Test compounds were formulated using a solution containing 10% acetone, 90% water and 300 ppm X-77® Spreader Lo-Foam Formula non-ionic surfactant containing alkylarylpolyoxyethylene, free fatty acids, glycols and isopropanol (Loveland Industries, Inc.) to provide the desired concentration in ppm. Formulated test solutions were then applied in 1 mL volumes through a SUJ2 atomizer nozzle with ⅛ JJ custom body (Spraying Systems Co.) positioned 1.27 cm (0.5 inches) above the top of each test unit.
(§3) For evaluating control of green peach aphid (Myzus persicae Sulzer) through contact and/or systemic means, each test unit consisted of a small open container with a 12- to 15-day-old radish plant inside. This was pre-infested by placing on a leaf of the test plant 30 to 40 aphids on a piece of leaf excised from a culture plant (cut-leaf method). The larvae moved onto the test plant as the leaf piece desiccated. After pre-infestation, the soil of the test unit was covered with a layer of sand.
(§4) Test compounds were formulated and sprayed as described in Test A, replicated three times. After spraying of the formulated test compound, each test unit was allowed to dry for 1 hour and then a black, screened cap was placed on top. The test units were held for 6 days in a growth chamber at 19-21° C. and 50-70% relative humidity.

[2] = tested on: potato leafhopper (Empoasca fabae Harris); details: Compound 1 0 ppm
Procedure: as §1, §2
For evaluating control of potato leafhopper (Empoasca fabae Harris) through contact and/or systemic means, each test unit consisted of a small open container with a 5- to 6-day-old Longio bean plant (primary leaves emerged) inside. White sand was added to the top of the soil, and one of the primary leaves was excised prior to application. Test compounds were formulated and sprayed with 3 replications as described for Test A. After spraying, the test units were allowed to dry for 1 hour before they were infested with 5 potato leafhoppers (18- to 21-day-old adults). A black, screened cap was placed on the top of each container. The test units were held for 6 days in a growth chamber at 19-21° C. and 50-70% relative humidity.

[3] = tested on: diamondback moth (Plutella xylostella); details: for mortality at 10 ppm: rate 10 ppm; for mortality at 0.08 ppm: rate 0.08 ppm; for mortality at 0.4 ppm: rate 0.4 ppm; for mortality at 2 ppm: rate 2 ppm
Procedure: as §1
For evaluating control of diamondback moth (Plutella xylostella), cabbage (var. Stonehead) plants were grown in Metromix potting soil in 10-cm pots in aluminum trays to test size (28 days, 3-4 full leaves) the plants were sprayed to the point of runoff using the turntable sprayer as described in Test I. Test compounds were formulated and sprayed on test plants as described for Test I. After drying for 2 hours, the treated leaves were excised and infested with one cabbage looper per cell and covered. The test units were placed on trays and put in a growth chamber at 25° C. and 60% relative humidity for 4 days.

[4] = tested on: silverleaf whitefly (Bemisia argentifolii Bellows and Perring); details: for % mortality (obs): Table 2B, compound alone
Procedure: as §1
For evaluating control of silverleaf whitefly (Bemisia argentifolii Bellows and Perring) through contact and/or systemic means, each test unit consisted of a small open container with a 12- to 14-day-old cotton plant inside. This was pre-infested by placing test units into cages infested with adult whiteflies so that oviposition on the cotton leaves could occur. The adults were removed from the plants with an air-blast nozzle, and the test units were capped. The test units were then stored 2 to 3 days before spraying.
as §2
The results for all experimental compositions in this test were replicated three times. After spraying of the formulated test composition, each test unit was allowed to dry for 1 hour and the cap removed. The test units were held for 13 days in a growth chamber at 28° C. and 50-70% relative humidity.

[5] = tested on: western flower thrip (Frankliniella occidentalis Pergande)
Procedure: as §1, §2
For evaluating control of the western flower thrip (Frankliniella occidentalis Pergande) through contact and/or systemic means, each test unit consisted of a small open container with a 5- to 7-day-old bean (var. Soleil) plant inside.
Test solutions were formulated and sprayed with 3 replications as described for Test A. After spraying, the test units were allowed to dry for 1 hour, 22 to 27 adult thrips were added to each unit and then a black, screened cap was placed on top. The test units were held for 7 days at 25° C. and 45-55% relative humidity.

[6] = tested on: cotton melon aphid (Aphis gossypii Glover)
Procedure: as §1, §2
as §3, with “cotton melon” for “green peach”, “(Aphis gossypii Glover)” for “(Myzus persicae Sulzer)”, “6-” for “12-”, “7-day-old cotton” for “15-day-old radish”
as §4, with “described for” for “described in”, “Test A. The applications were” for “Test A,”, “test compounds,” for “test compound,”

[7] = Plutella xylostella, in Brassica oleracea, rate 1 ppm, read-out: % mortality (obs)
[8] = Plutella xylostella, in Brassica oleracea, read-out: % mortality (obs)
[9] = Plutella xylostella, in Brassica oleracea, rate 100 ppm, read-out: % mortality (obs)
[10] = Plutella xylostella, in Brassica oleracea, rate 1000 ppm, read-out: % mortality (obs)

Compound: O=[N+]([O-])NC1=NCCN1Cc1ccc(Cl)nc1 [Imidacloprid, imidacloprid]
- mortality at 0.3 ppm ([1]; Myzus persicae, in Raphanus sativus, read-out: % Mortality (observed)): 50%
- % Mortality (observed) ([2]; Imidacloprid 0.4 ppm): 20%
- % Mortality (observed) ([2]; Imidacloprid 1.4 ppm): 0%
- % Mortality (observed) ([2]; Imidacloprid 4.6 ppm): 20%

Compound: CNC(=O)O/N=C(\SC)C(=O)N(C)C [Oxamyl, oxamyl]
- % mortality (obs) ([3]; rate 1 ppm): 60%

Compound: CC1(C)CNC(=NN=C(/C=C/c2ccc(C(F)(F)F)cc2)/C=C/c2ccc(C(F)(F)F)cc2)NC1 [Hydramethylnon, hydramethylnon]
- mortality at 0.01 ppm ([3]; Plutella xylostella, in Brassica oleracea, rate 0.01 ppm, read-out: % mortality (obs)): 70%
- mortality at 0.05 ppm ([3]; Plutella xylostella, in Brassica oleracea, rate 0.05 ppm, read-out: % mortality (obs)): 50%
- mortality at 0.2 ppm ([3]; Plutella xylostella, in Brassica oleracea, rate 0.2 ppm, read-out: % mortality (obs)): 60%

Compound: CNC(=O)c1cc(C#N)cc(C)c1NC(=O)c1cc(Br)nn1-c1ncccc1Cl [Compund 1]
- % mortality (obs) ([4]; rate 7 ppm): 30%
- % mortality (obs) ([4]; rate 9 ppm): 53%
- % mortality (obs) ([4]; rate 12 ppm): 71%

Compound: CC1(C)[C@H](C(=O)O[C@H](C#N)c2cccc(Oc3ccccc3)c2)[C@@H]1C=C(Br)Br [Deltamethrin, deltamethrin]
- mortality at 0.1 ppm ([3]; Plutella xylostella, in Brassica oleracea, rate 0.1 ppm, read-out: % mortality (obs)): 90%
- mortality at 0.3 ppm ([3]; Plutella xylostella, in Brassica oleracea, rate 0.3 ppm, read-out: % mortality (obs)): 90%
- mortality at 1 ppm [3, 7]: 90%

Compound: spinosad
- % mortality ([3]; rate 10): 100%
- % mortality ([3]; rate 100): 90%
- % mortality ([3]; rate 1000): 100%

Compound: thiamethoxam
- % Mortality (observed) ([1]; 0.2 ppm): 23%
- % Mortality (observed) ([1]; 0.3 ppm): 23%
- % Mortality (observed) ([1]; 0.5 ppm): 93%
- % Mortality (observed) ([4]; Thiamethoxam 15 ppm alone): 53%
- % Mortality (observed) ([4]; Thiamethoxam 26 ppm alone): 65%
- % Mortality (observed) ([5]; Thiamethoxam 1 ppm alone): 33%
- % Mortality (observed) ([5]; Thiamethoxam 5.5 ppm alone): 43%
- % Mortality (observed) ([5]; Thiamethoxam 29 ppm alone): 43%
- % Mortality (observed) ([6]; Thiamethoxam 0.5 ppm): 22%
- % Mortality (observed) ([6]; Thiamethoxam 0.8 ppm): 83%
- % Mortality (observed) ([6]; Thiamethoxam 1 ppm): 91%
- % mortality ([3]; rate 30): 90%
- % mortality ([3]; rate 40): 100%
- % mortality ([3]; rate 50): 100%

Compound: CCOP(=S)(OCC)Oc1nc(Cl)c(Cl)cc1Cl [Chlorpyrifos, chlorpyrifos]
- mortality at 10 ppm [3, 8]: 80%
- mortality at 100 ppm [3, 9]: 40%
- mortality at 1000 ppm [3, 10]: 50%

Compound: CCOC(=O)NCCOc1ccc(Oc2ccccc2)cc1 [Fenoxycarb, fenoxycarb]
- mortality at 10 ppm [3, 8]: 90%
- mortality at 100 ppm [3, 9]: 90%
- mortality at 1000 ppm [3, 10]: 90%

Compound: CC(C)N1C(=O)N(c2ccccc2)CS/C1=N\C(C)(C)C [Buprofezin, buprofezin]
- mortality at 10 ppm [3, 8]: 30%
- mortality at 1000 ppm [3, 10]: 60%

Compound: O=C(NC(=O)c1c(F)cccc1F)Nc1cc(Cl)c(OC(F)(F)C(F)C(F)(F)F)cc1Cl (stereo not drawn) [Lufenuron, lufenuron]
- mortality at 0.08 ppm [3, 8]: 80%
- mortality at 0.4 ppm [3, 8]: 80%
- mortality at 2 ppm [3, 8]: 90%

Compound: Nc1nc(N)nc(NC2CC2)n1 [Cyromazine, cyromazine]
- mortality at 20 ppm ([3]; Plutella xylostella, in Brassica oleracea, rate 20 ppm, read-out: % mortality (obs)): 60%
- mortality at 40 ppm ([3]; Plutella xylostella, in Brassica oleracea, rate 40 ppm, read-out: % mortality (obs)): 90%
- mortality at 60 ppm ([3]; Plutella xylostella, in Brassica oleracea, rate 60 ppm, read-out: % mortality (obs)): 80%

Compound: COC(=O)N(C(=O)N1CO[C@@]2(C(=O)OC)Cc3cc(Cl)ccc3C2=N1)c1ccc(OC(F)(F)F)cc1 [Indoxacarb, indoxacarb]
- % mortality (obs) ([3]; rate 0.02 ppm): 80%
- % mortality (obs) ([3]; rate 0.05 ppm): 40%

Compound: O=C(NC(=O)c1c(F)cccc1F)Nc1cc(Cl)c(OC(F)(F)C(F)F)c(Cl)c1 [Hexaflumuron, hexaflumuron]
- mortality at 10 ppm ([5]; Frankliniella occidentalis, rate 10 ppm, read-out: % mortality (obs)): 20%
- mortality at 3000 ppm ([5]; Frankliniella occidentalis, rate 3000 ppm, read-out: % mortality (obs)): 60%
- mortality at 0.5 ppm ([3]; Plutella xylostella, in Brassica oleracea, rate 0.5 ppm, read-out: % mortality (obs)): 70%
- mortality at 1 ppm [3, 7]: 30%
- mortality at 2 ppm [3, 8]: 70%

Compound: COc1cccc(C(=O)NN(C(=O)c2cc(C)cc(C)c2)C(C)(C)C)c1C [Methoxyfenozide, methoxyfenozide]
- mortality at 5 ppm ([6]; Aphis gossypii, rate 5 ppm, read-out: % mortality (obs)): 22%
- mortality at 50 ppm ([6]; Aphis gossypii, rate 50 ppm, read-out: % mortality (obs)): 20%
- mortality at 500 ppm ([6]; Aphis gossypii, rate 500 ppm, read-out: % mortality (obs)): 26%
- mortality at 0.08 ppm [3, 8]: 90%
- mortality at 0.4 ppm [3, 8]: 90%
- mortality at 2 ppm [3, 8]: 90%

Compound: dieldrin
- % mortality ([3]; rate 2): 90%
- % mortality ([3]; rate 2.5): 100%
- % mortality ([3]; rate 3): 100%

Compound: pyridaben
- % mortality ([3]; rate 100): 100%
- % mortality ([3]; rate 150): 80%
- % mortality ([3]; rate 200): 100%

Compound: CS/C(C)=N\OC(=O)N(C)SN(C)C(=O)O/N=C(\C)SC [Thiodicarb, thiodicarb]
- % mortality (obs) ([3]; rate 100 ppm): 90%
- % mortality (obs) ([3]; rate 1000 ppm): 90%
- % mortality (obs) ([3]; rate 3000 ppm): 90%

Compound: CCc1ccc(C(=O)NN(C(=O)c2cc(C)cc(C)c2)C(C)(C)C)cc1 [Tebufenozide, tebufenozide]
- mortality at 150 ppm ([3]; Plutella xylostella, in Brassica oleracea, rate 150 ppm, read-out: % mortality (obs)): 90%
- mortality at 200 ppm ([3]; Plutella xylostella, in Brassica oleracea, rate 200 ppm, read-out: % mortality (obs)): 90%
- mortality at 300 ppm ([3]; Plutella xylostella, in Brassica oleracea, rate 300 ppm, read-out: % mortality (obs)): 90%

Compound: Cc1ccc(/N=C/N(C)/C=N/c2ccc(C)cc2C)c(C)c1 [Amitraz, amitraz]
- % mortality ([3]; rate 10): 70%
- % mortality ([3]; rate 100): 20%
- % mortality ([3]; rate 1000): 50%

Compound: CNC(=O)ON=C(C)SC [Methomyl, methomyl]
- % mortality ([3]; rate 30): 80%
- % mortality ([3]; rate 40): 90%
- % mortality ([3]; rate 50): 80%

Compound: N#CCNC(=O)c1cnccc1C(F)(F)F [Flonicamid, flonicamid]
- % mortality ([3]; rate 1): 0%
- % mortality ([3]; rate 15): 60%
- % mortality ([3]; rate 1000): 30%

Compound: CCN(Cc1ccc(Cl)nc1)/C(=C/[N+](=O)[O-])NC [Nitenpyram, nitenpyram]
- % mortality (obs) ([3]; rate 30 ppm): 90%
- % mortality (obs) ([3]; rate 150 ppm): 90%

Reference: patent US20090104145A1, “Mixtures of Anthranilamide Invertebrate Pest Control Agents” (priority 2004, published 2009)
